Results as given in the NIST ThermoML archive (doi:10.1016/j.fluid.2012.11.030).
Numbers after ± are expanded uncertainties.

Tests used:
[1] = Crystal; DTA
[2] = Molar enthalpy of transition or fusion; conditions: Crystal; DSC

Row | SMILES | Normal melting temperature [1] | Molar enthalpy of transition or fusion [2]
1 | CCCCCCCCCCCC(=O)OCC [ethyl dodecanoate] | 0.1 ± 0.7 °C | 9.52 ± 0.263 kcal/mol
2 | CCCCCCCCCCCCCCCC(=O)OCC [ethyl hexadecanoate] | 25.08 ± 0.7 °C | 13.3 ± 0.359 kcal/mol
3 | CCCCCCCC/C=C\CCCCCCCC(=O)OCC [ethyl (Z)-9-octadeceneoate] | -19.06 ± 0.7 °C | 11.4 ± 0.311 kcal/mol
